Among the data in PMC12144444, “Cooperative inhibition in cytochrome P450 between a substrate and an apparent noncompetitive inhibitor” (The Journal of Biological Chemistry, 2025) are Type of inhibition values, retold here.

The series has as its target CYP105A1 R84A (Streptomyces griseolus, UniProt P18326, R84A). The settings on record: diclofenac 4′-hydroxylation, Lineweaver-Burk and Dixon plots. How it is done:
Ethanol concentration in the final reaction solution was 0.8%. […] After each interval, the reaction was stopped by an addition of 50 μl of acetonitrile into each reaction solution. The solution was centrifuged at 10,000 x g for 15 min, and the resultant supernatant was analyzed by ultra performance liquid chromatography (UPLC) under the following conditions: apparatus, H-Class (Waters Co.); column, ACQUITY UPLC BEH C18 (1.7 μm, 2.1 × 100 mm) (Waters Co.); UV detection, 276 nm; column temperature, 40 °C; flow rate, 0.7 ml/min; injection volume, 10 μl; mobile phase, a linear gradient of 25 to 43% acetonitrile in aqueous solution containing 0.1% trifluoroacetic acid (TFA) for 3 min, followed by 43 to 58% acetonitrile in aqueous solution containing 0.1% TFA for 1 min, followed by 58 to 100% acetonitrile in aqueous solution containing 0.1% TFA for 2 min. […] Two separate experiments were performed to obtain the kobs value for 30 μM diclofenac in 5 μM miconazole. Three separate experiments were performed to obtain all other kobs values. Lineweaver-Burk plot and Dixon plot were prepared from the obtained kobs for each reaction.

As to `N#C/C(=C1/SCC(c2ccccc2Cl)S1)n1ccnc1` (centres unmarked) [Lanoconazole], the Type of inhibition result is given as “noncompetitive inhibition”. For the molecule `Clc1ccc(COC(Cn2ccnc2)c2ccc(Cl)cc2Cl)c(Cl)c1` (centres unmarked) [Miconazole], the Type of inhibition result is on record as “competitive inhibition”.
